Data as given in US10350152B2, “Skin whitening composition, and method for screening for materials having skin whitening effect” (AMOREPACIFIC CORPORATION, priority 2015, dated 2019).

Columns and labels:
Normal human melanocytes = assay: Amount of secretion of exosomes from UVB-irradiated melanocytes (exosome marker CD81, western blot); assay type: cell-based; settings: 10 μM, treated for 12 hours before UVB exposure (20 mJ/cm^2), cultured 24 hours
Method: Normal human melanocytes (Cascade Biologics, Portland, Oreg., USA) were kept in M-254 medium (Cascade) containing a human melanocyte growth supplement (Cascade). GW4869 (Santa Cruz Biotechnology, Santa Cruz, Calif., USA) and pifithrin-μ (Sigma, St. Louis, Mo., USA) were dissolved in DMSO for use. For isolation of exosomes, confluent melanocytes were washed with PBS and cultured in M-254 for 48 hours. Conditioned medium was collected and centrifuged at 500×g for 10 minutes, 3,000×g for 20 minutes, and 100,000×g for 2 hours. The resultant exosome-containing pellet was resuspended in PBS and stored at −80° C. Also, conditioned medium was purified by filtration through a 0.45 μm pore filter (Millipore, Billerica, Mass., USA) and concentrated using a 100 kDa cut-off spin column (Millipore). Exosomes were isolated using the ExoQuick-TC kit (SBI, San Jose, Calif., USA) according to the manufacturer's instructions. 20 μl of isolated exosomes were analyzed by western blot and silver staining. Cells or isolated exosomes were lysed with lysis buffer (1% NP-40, 0.05 M Tris-HCl, pH 7.5, 0.15 M NaCl, and 0.01 M MgCl2) containing protease inhibitors (Sigma). Protein concentrations were determined using BCA assays, and samples were […] by SDS-PAGE, transferred to a PVDF membrane, and probed with antibodies against CD81 (SBI). […]

melanocytes = assay: Viability of melanocytes cultured with exosomes (crystal violet cytotoxicity test); assay type: cell-based, human; settings: exosomes from melanocytes treated with ultraviolet rays together with inhibitor; recipient melanocytes irradiated with UVB 20 mJ/cm^2, cultured 3 days
Method: Normal human melanocytes (Cascade Biologics, Portland, Oreg., USA) were kept in M-254 medium (Cascade) containing a human melanocyte growth supplement (Cascade). GW4869 (Santa Cruz Biotechnology, Santa Cruz, Calif., USA) and pifithrin-μ (Sigma, St. Louis, Mo., USA) were dissolved in DMSO for use. Melanocytes were seeded in a 6-well plate at a density of 1×10^4 cells/well. The next day, 10 μl of exosomes isolated from the same number of cells were treated. Cells were fixed with 4% formaldehyde in PBS for 15 minutes, washed with PBS and stained with 0.1% crystal violet for 20 minutes. After washing with PBS, the cells were dried and lysed with 10% acetic acid. The absorbance was measured at 590 nm using a spectrophotometer. Each of the exosomes obtained from UVB-untreated melanocytes, UVB-treated melanocytes, or UVB- and GW4869-treated melanocytes, together with melanocytes, were irradiated with UVB (20 mJ/cm^2), and cultured for 3 days.

SMILES	amount of expression of the exosome marker CD81 (Normal human melanocytes)	effect of exosomes from UVB- and inhibitor-treated melanocytes on viability of ultraviolet-irradiated melanocytes (melanocytes)
Cl.Cl.O=C(/C=C/c1ccc(/C=C/C(=O)Nc2ccc(C3=NCCN3)cc2)cc1)Nc1ccc(C2=NCCN2)cc1 [GW4869]	decreased	reduced effect in the enhancement of the viability of melanocytes
NS(=O)(=O)C#Cc1ccccc1 [pifithrin-μ]	decreased	reduced effect in the enhancement of the viability of melanocytes
